Assay results taken from patent US8343939B2, “Methods of modulating angiogenesis” (Joslin Diabetes Center, Inc., priority 2007, dated 2013).

Assays:
[1] = tested on: eNOS Ser1179 phosphorylation; test: Western blot of eNOS phosphorylation in BAEC; format: cell-based, bovine; conditions: for eNOS Ser1179 phosphorylation increased during stimulation: insulin 100 nM or VEGF 1 nM
Description: (§1) Bovine aortic endothelial cells (BAEC) were isolated by scraping the luminal side of a calf aorta with a cover glass and transferring the harvested material to a 100 mm cell culture dish. The primary culture and subcultures were grown in Dulbecco's modified Eagle medium (DMEM) with 5.5 mM glucose, 10% (v/v) horse serum, 25 mM HEPES, 100 U/ml penicillin, and 100 μg/ml streptomycin in collagen I-coated dishes (BioCoat, BD BioSciences). Purity of the cultures was validated by the presence of typical “cobblestone” morphology during phase-contrast microscopy (16) and by the ability of cells to take up acetylated LDL (DiI AcLDL, Molecular Probes, Eugene, Oreg.). Cultures used for experiments were plated in 6-well plates (9.5 cm^2 wells), except for PKC translocation assays (see below). The cells were serum-starved for 16 hours before stimulation by replacing growth medium with DMEM containing 0.1% (w/v) bovine serum albumin. At the time of stimulation, cultures were typically 3 days old and confluent. GF109203X (GFX) (Calbiochem, San Diego, Calif.), wortmannin (Calbiochem), phorbol-12-myristate-13-acetate (PMA) (Sigma, St. Louis, Mo.), bovine insulin (Sigma), and VEGF-A165 (R & D Systems, Minneapolis, Minn.) were added directly to the culture medium when indicated, using an identical volume of solvent as control.
(§2) Cultures were washed twice with ice-cold PBS and lysed in a buffer containing Tris (20 mM, pH 7.5), Triton X-100 (1% v/v), sodium pyrophosphate (2.5 mM); NaF (10 mM), NaCl (140 mM), EDTA (1 mM), EGTA (1 mM), β-glycerophosphate (1 mM), Na3VO4 (1 mM), leupeptin (1 μg/ml=2 μM), aprotinin (1 μg/ml=[…]), and phenylmethylsulfonylfluoride (1 mM). Protein concentration was measured by the Bradford method and samples reduced in modified Laemmli buffer (Invitrogen) and heated at 70° C. for 10 minutes. Equal sample volume and protein mass and reduced samples were separated on precast minigels (NuPAGE tris-acetate gels, Invitrogen) and electrotransferred to nitrocellulose.
(§3) Primary antibody targets were visualized by incubation with horseradish peroxidase-linked secondary antibodies, enhanced chemiluminescence (Amersham Biosciences (currently GE Healthcare), Piscataway, N.J.), and exposure to X-ray film (Kodak, New Haven, Conn.). The film was scanned and signal intensity of protein bands quantitated with ImageQuant software (version 5.1, Molecular Dynamics/Amersham Biosciences/GE Healthcare, Piscataway, N.J.). The intensity of phospho-specific immunoblot was normalized to the intensity of the unstimulated condition and of the nonphospho-specific protein.
BAEC were stimulated with insulin (100 nM, 5 minutes) or VEGF (1 nM, 5 minutes) after pretreatment with PMA (100 nM, 30 minutes) or vehicle as a control (DMSO, 0.2% (v/v)). Akt and eNOS phosphorylation in the BAEC was examined. In some experiments (FIGS. 1C and 1D), BAEC were also incubated with GFX (1 μM) or vehicle (DMSO 0.2%) 60 minutes before insulin or VEGF stimulation.
(§4) BAEC were stimulated with insulin (100 nM, 5 minutes) or VEGF (1 nM, 5 minutes) after pretreatment with wortmannin (100 nM, 30 minutes before insulin or VEGF stimulation) or vehicle (DMSO 0.2% (v/v)). In some experiments (FIG. 2C), BAEC were incubated with wortmannin (60 minutes before VEGF stimulation) or DMSO, then with PMA (30 minutes before VEGF stimulation) or DMSO.

[2] = tested on: Akt Ser473 phosphorylation; test: Western blot of Akt phosphorylation in BAEC; format: cell-based, bovine; conditions: for decrease in Akt Ser473 phosphorylation: PMA 100 nM, 30 minutes; for Akt Ser473 phosphorylation increased after stimulation: BAEC, insulin 100 nM or VEGF 1 nM
Description: as §1, §2, §3
BAEC were stimulated with insulin (100 nM, 5 minutes) or VEGF (1 nM, 5 minutes) after pretreatment with PMA (100 nM, 30 minutes) or vehicle as a control (DMSO, 0.2% (v/v)). Akt and eNOS phosphorylation in the BAEC was examined. […]
as §4

PKCε = conditions: for translocation of PKCε from cytosol to membrane fractions: VEGF 1 nM, 3, 10 or 30 minutes, PMA 100 nM, 10 minutes
Description: (§5) For each condition, three 15 cm plates (each 151 cm^2) were used. After stimulation, the plates were washed twice in ice-cold PBS and once in a hypertonic lysis buffer (Buffer A) containing Tris (pH 7.5, 20 mM), sucrose (300 mM), EDTA (2 mM), EGTA (0.5 mM), DTT (1 mM), leupeptin (10 μg/ml), and PMSF (1 mM). Each set of 3 plates were then scraped in a combined volume of 3 ml of hypertonic buffer, homogenized in a glass Dounce homogenizer, and centrifuged at 1,000×g for 10 minutes. The supernatant was ultracentrifuged at 100,000×g for 30 minutes, and the ensuing supernatant was taken aside and used as the cytosolic fraction. The pellet was washed once in Buffer B (Buffer A without sucrose), then homogenized in 2.7 ml Buffer B in a glass Dounce homogenizer, and finally lysed by adding 0.3 ml Triton X-100 to a final concentration of 1% (v/v) and rotated for 30 minutes. After ultracentrifugation at 100,000×g for 30 minutes, the supernatant was taken aside and used as the membrane fraction. By using similar volumes for the initial lysis and for the membrane pellet, protein abundance in the cytosol and membrane fraction approximately represent their relative expression in the intact cell. Protein concentration was measured in both fractions with the bicinchoninic acid (BCA) assay, and samples were normalized for protein concentration and assayed by electrophoresis and Western blotting as described below.
(§6) BAEC were stimulated with VEGF (1 nM; 3, 10, or 30 minutes) or PMA (100 nM, 10 minutes).

PKCδ = conditions: for translocation of PKCδ from cytosol to membrane fractions: VEGF 1 nM, 3, 10 or 30 minutes, PMA 100 nM, 10 minutes
Description: as §5, §6

PKCα = PKCα (Bos taurus, UniProt P04409); test: Membrane translocation of PKC isoforms (cell fractionation, immunoblot) in BAEC; format: cell-based, bovine; conditions: for translocation of PKCα from cytosol to membrane fractions: VEGF 1 nM, 3, 10 or 30 minutes, PMA 100 nM, 10 minutes
BAEC = test: DNA synthesis by BrdU incorporation in BAEC; format: cell-based, bovine; conditions: control siRNA condition; VEGF 1 nM
Description: For measurement of DNA synthesis, cells were trypsin-treated 2 days after transfection with siRNA, and 10,000 cells were added to each well (0.32 cm^2) of 96-well plates in serum-free DMEM with 0.1% BSA, with or without VEGF 1 nM. After 16 hours, cells were labeled with 5-bromo-2′-deoxyuridine (BrdU) according to the manufacturer's instructions (Roche Applied Science, Penzberg, Germany). In short, the medium was replaced with medium containing 10 μM BrdU. After an additional 8 hours, cells were fixed and incubated with anti-BrdU antibody conjugated with peroxidase. After washing, a solution of tetramethyl-benzidine was added, and the color reaction quantitated by measuring the difference between the optical density at 370 and 492 nm.

Erk1/2 phosphorylation = test: Western blot of Erk1/2 phosphorylation in BAEC; format: cell-based, bovine; conditions: control siRNA; VEGF 1 nM, 5 minutes
Description: as §2, §3

VEGFR2 = VEGFR2 protein expression (immunoprecipitation and immunoblot) in BAEC; format: cell-based, bovine; conditions: cells transfected with control siRNA; VEGF 1 nM, 5 minutes
Description: For VEGFR2 and VEGFR1 immunoprecipitation, approximately 1 mg of protein was immunoprecipitated with 20 μg polyclonal antibody (Santa Cruz Biotechnology, Santa Cruz, Calif.) and washed 3 times with lysis buffer. Whole cell lysate or immunoprecipitates were reduced by addition of modified Laemmli buffer (Invitrogen) and heating to 70° C. for 10 minutes. Samples were then separated on precast minigels (NuPAGE tris-acetate gels, Invitrogen) and electrotransferred to a nitrocellulose membrane. […]
as §3, with “The intensity of phospho-specific immunoblot was normalized to the intensity of the unstimulated condition and of the nonphospho-specific protein.” left out

eNOS, Akt, Erk, or p38 = test: Phosphorylation of eNOS, Akt, Erk, p38 after placental growth factor in BAEC; format: cell-based, bovine; conditions: data not shown
Description: Next, VEGFR1 and VEGFR2 expression was examined. BAEC were transfected with siRNA, including the PKCε siRNA used in the previous experiments (abbreviated “ε1” here) and a second PKCε (“ε2”), grown, and serum-starved. VEGFR2 (a) or VEGFR1 (b) mRNA was measured in cell lysate by real-time PCR VEGF signal transduction during PKC knockdown could change because VEGFR2 expression results in a secondary change in VEGFR1/Fms-like tyrosine kinase-1 (Flt-1) expression. Indeed, PKCα and PKCδ knockdown increased VEGFR1 mRNA expression to 240±20 and 178±1% of the control siRNA condition, respectively (FIG. 12b, p<0.01). […] VEGFR1 protein or VEGFR1-mediated signal transduction was not detected by Western blotting in these cells. […] Thus, VEGFR1 protein is likely expressed at a very low level compared to VEGFR2 in BAEC. Changes seen in VEGF signal transduction during PKCα and δ knockdown could be influenced by upregulation of VEGFR1, but there is no indication that changes in VEGF signaling during PKCε knockdown can be attributed to changes in VEGFR1 mRNA expression.

[3] = GFX 1 μM, 30 minutes pre-incubation, with or without insulin or VEGF
[4] = control siRNA condition, VEGF 1 nM, 5 minutes

In the case of `CN(C)CCCn1cc(C2=C(c3c[nH]c4ccccc34)C(=O)NC2=O)c2ccccc21` [GFX, GF109203X], the “effect on the actions of PMA on eNOS phosphorylation” value [1, 3] is reported as “completely prevented” and the “effect on the actions of PMA on Akt phosphorylation” value [2, 3] is reported as “completely prevented”.

With `CCCCCCCCCCCCCC(=O)O[C@@H]1[C@@H](C)[C@@]2(O)[C@@H](C=C(CO)C[C@]3(O)C(=O)C(C)=C[C@@H]23)[C@@H]2C(C)(C)[C@]12OC(C)=O` [PMA, phorbol-12-myristate-13-acetate] the “translocation of PKCε from cytosol to membrane fractions” value (PKCε) was “stimulated translocation”, the “eNOS Ser1179 phosphorylation increase when VEGF was preceded by PMA” value ([1]; PMA 100 nM, 30 minutes, VEGF 1 nM, 5 minutes) was 2.7±0.4 fold and the “eNOS Ser1179 phosphorylation increase when insulin was preceded by PMA” value ([1]; PMA 100 nM, 30 minutes, insulin 100 nM, 5 minutes) was 1.2±0.2 fold. The “increase in VEGF-stimulated eNOS Ser1179 phosphorylation” value ([1]; PMA in the presence of wortmannin) was 50±9%, the “translocation of PKCδ from cytosol to membrane fractions” value (PKCδ) was “stimulated translocation” and the “translocation of PKCα from cytosol to membrane fractions” value (PKCα) was “stimulated translocation”. For the same molecule, the “decrease in Akt Ser473 phosphorylation” value ([2]; after VEGF stimulation (1 nM, 5 minutes)) was 79±4%, the “decrease in Akt Ser473 phosphorylation” value ([2]; after insulin stimulation (100 nM, 5 minutes)) was 81±4% and the “decrease in Akt Ser473 phosphorylation” value ([2]; basal state) was 59±12%.

In the case of `COC[C@H]1OC(=O)c2coc3c2[C@@]1(C)C1=C(C3=O)[C@@H]2CCC(=O)[C@@]2(C)C[C@H]1OC(C)=O` [wortmannin], the inhibition at 0.1 µM ([1]; Bos taurus, BAEC, wortmannin 100 nM, 30 minutes, VEGF 1 nM, 5 minutes, read-out: inhibition of VEGF-stimulated eNOS phosphorylation) is reported as 30 ± 9% and the “eNOS phosphorylation, % of basal” value ([1]; wortmannin 100 nM, 30 minutes, unstimulated) is reported as 63±1 % of basal.

VEGF was tested, and the “translocation of PKCε from cytosol to membrane fractions” value (PKCε) was “stimulated translocation”, the “maximal decrease in cytosol expression of PKCε” value (PKCε; VEGF 1 nM, at 3 minutes) was 57±21% and the “maximal increase in membrane expression of PKCε” value (PKCε; VEGF 1 nM, at 3 minutes) was 31±5%. The “eNOS Ser1179 phosphorylation increased during stimulation” value ([1]; BAEC, 5 minutes) was 2.6±0.5 fold, the “VEGF-stimulated eNOS phosphorylation, fold increase” value [1, 4] was 5.2±0.5 fold and the “VEGF-increased BrdU incorporation” value (BAEC) was 34%. The “translocation of PKCδ from cytosol to membrane fractions” value (PKCδ) was “stimulated translocation”, the “maximal decrease in cytosol expression of PKCδ” value (PKCδ; VEGF 1 nM, at 3 minutes) was 29±25% and the “maximal increase in membrane expression of PKCδ” value (PKCδ; VEGF 1 nM, at 10 minutes) was 39±10%. For the same molecule, the “translocation of PKCα from cytosol to membrane fractions” value (PKCα) was “stimulated translocation”, the “maximal decrease in cytosol expression of PKCα” value (PKCα; VEGF 1 nM, at 3 minutes) was 18±10% and the “maximal increase in membrane expression of PKCα” value (PKCα; VEGF 1 nM, at 3 minutes) was 72±57%. The “VEGF-increased phosphorylation of Erk1/2” value (Erk1/2 phosphorylation) was 10±1.8 fold, the “Akt Ser473 phosphorylation increased after stimulation” value ([2]; 5 minutes) was 2.9±0.8 fold and the “VEGF-stimulated Akt phosphorylation, fold increase” value [2, 4] was 1.7±0.1 fold. For the same molecule, the “VEGF-stimulated decrease in VEGFR2 protein” value (VEGFR2) was 12±3%.

With insulin: bovine insulin (Sigma) the “eNOS Ser1179 phosphorylation increased during stimulation” value ([1]; BAEC, 5 minutes) was 1.8±0.2 fold and the “Akt Ser473 phosphorylation increased after stimulation” value ([2]; 5 minutes) was 3.7±0.7 fold.

B1: placental growth factor: placental growth factor, which activates VEGFR1 but not VEGFR2 (protein, UniProt P49763 19-221, looked up)
Placenta growth factor: LPAVPPQQWALSAGNGSSEVEVVPFQEVWGRSYCRALERLVDVVSEYPSEVEHMFSPSCVSLLRCTGCCGDENLHCVPVETANVTMQLLKIRSGDRPSYVELTFSQHVRCECRHSPGRQSPDMPGDFRADAPSFLPPRRSLPMLFRMEWGCALTGSQSAVWPSSPVPEEIPRMHPGRNGKKQQRKPLREKMKPERCGDAVPRR
B1 was tested, and the “phosphorylation of eNOS, Akt, Erk, or p38” value (eNOS, Akt, Erk, or p38) was “did not increase”.
